According to paper PMC12523804, “Evaluation of molecular mechanisms of (Z)-3-(pentadec-10′-enyl)-catechol (litreol) and synthetic derivatives as inhibitors of human leukotriene biosynthesis” (Redox Biology, 2025):

Experiments:
human PMNLs = assay: Lactate dehydrogenase release (LDH assay) in PMNL; assay type: cell-based
Description: After treatment of PMNL, supernatants were centrifuged (600g × 5 min, 4 °C), and 100 μL of supernatant were mixed with 200 μL LDH reaction buffer (75 mM Tris/HCl, pH 7.4, 0.3 mM NADH, 1.5 mM Na-pyruvate) in a 96-well plate. The decrease of NADH was measured immediately by absorbance at 340 nm in a kinetic mode (every 7 s for 20 min; Multiskan Spectrum). As a positive control for maximal LDH release, cells treated with 1 % Triton X-100 were included in each experiment, while untreated cells and vehicle (DMSO) served as negative controls.

p38 MAPK = assay: Western blot of p38 MAPK phosphorylation; assay type: cell-based, human; conditions: for fMLP-induced activation (phosphorylation) of p38 MAP kinase: PMNL, 1 μM compound, 1 μM fMLP
Description: (§1) Human polymorphonuclear leukocytes (PMNLs; 50 × 10^6), isolated from whole blood, were resuspended in 1 mL of cold PGC buffer. Briefly, neutrophils were pre-incubated for 15 min at 37 °C with test compounds (1 μM). […] The samples were subsequent centrifuged (1200g, 10 min) and the pellets were resuspended in 100 μL od SDS-PAGE loading buffer (2x) (Tris 1 M pH 8, EDTA 0.2 M, 10 % SDS, 10 % mercaptoethanol). Correct protein loading on the gels and transfer of proteins to the nitrocellulose membrane were confirmed by Ponceau staining. Membranes with transferred proteins were incubated overnight with primary antibodies in 1x Tris Buffered Saline (TBS) with 1 % Casein (Biorad- #1610782). Membranes were then washed and incubated with horseradish peroxidase-conjugated secondary antibodies for 1 h at room temperature. Blots were developed using enhanced chemiluminescence detection reagents ECL (Immobilion ECL Ultra Western HRP Substrate - Cat# WBULS0500 Millipore) and acquired using ChemiDoc Imaging System (BioRad). Antibody recognizing phosphorylated p38-MAPkinase, pERK, ERK, NfKB were from Cell Signalling Technology (Boston, MA) and used at 1:1000 dilution. Secondary antibodies were purchased from Biorad (170–6515; 170–6516) and used at 1:2000 diluition.

ERK = assay: Western blot of ERK phosphorylation; assay type: cell-based, human; conditions: for fMLP-induced activation (phosphorylation) of ERK: PMNL, 1 μM compound, 1 μM fMLP
Description: as §1

5-LO/FLAP = biological target: T1, 5-LO/FLAP (Homo sapiens, UniProt P09917); assay: Subcellular localization of 5-LO and FLAP by immunofluorescence microscopy in HEK293 cells; assay type: cell-based; conditions: HEK293 cells expressing 5-LO and FLAP, 3 μM (Fig. 4D) or 10 μM (method)
T1 construct: expressed in transfected cells; host or cells: HEK-293, stably transfected
T1 sequence (P09917 1-674): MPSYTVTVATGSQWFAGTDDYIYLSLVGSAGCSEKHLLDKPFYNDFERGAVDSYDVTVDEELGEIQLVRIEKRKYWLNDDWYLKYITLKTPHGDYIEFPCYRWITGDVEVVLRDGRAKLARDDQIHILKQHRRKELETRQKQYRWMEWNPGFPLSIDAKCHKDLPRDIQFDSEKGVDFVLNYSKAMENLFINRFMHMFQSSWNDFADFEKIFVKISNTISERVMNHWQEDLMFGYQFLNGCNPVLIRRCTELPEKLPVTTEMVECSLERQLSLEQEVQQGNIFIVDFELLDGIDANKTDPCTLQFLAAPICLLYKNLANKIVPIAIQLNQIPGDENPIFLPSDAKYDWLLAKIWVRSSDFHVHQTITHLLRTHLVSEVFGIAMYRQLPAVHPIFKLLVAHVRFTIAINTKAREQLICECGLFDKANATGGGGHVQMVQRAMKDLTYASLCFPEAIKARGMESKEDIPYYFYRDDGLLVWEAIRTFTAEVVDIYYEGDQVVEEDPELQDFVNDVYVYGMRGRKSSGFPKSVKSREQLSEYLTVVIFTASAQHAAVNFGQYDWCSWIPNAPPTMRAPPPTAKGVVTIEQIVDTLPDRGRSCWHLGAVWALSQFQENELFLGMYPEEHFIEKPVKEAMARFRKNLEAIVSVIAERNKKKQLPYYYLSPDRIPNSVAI
Description: Subcellular localization of 5-LO and FLAP was analyzed by immunofluorescence (IF) microscopy. In brief, HEK-293 cells expressing 5-LO/FLAP were seeded onto acid-washed (50 % sulfuric acid) and poly-L-lysine (0.01 %)-coated glass coverslips and cultured for 48 h at 37 °C until ∼60 % confluency. Cells were pre-incubated with 10 μM of compounds or vehicle (0.1 % DMSO) for 10 min before stimulation with 2.5 μM A23187 for 20 min at 37 °C. After fixation with 4 % paraformaldehyde solution, followed by permeabilization by using 50 mM ammonium chloride and acetone (3 min, 4 °C), cells were incubated with 10 % non-immune goat serum blocking solution for 1 h. Then, cells were incubated over night with mouse monoclonal anti-5-LO antibody (1:100) and rabbit polyclonal anti-FLAP antibody ([…]). The coverslips were intensively washed with PBS before staining with the fluorophore-labeled secondary antibodies Alexa Fluor 488 goat anti-rabbit (1:500) and Alexa Fluor 555 goat anti-mouse (1:500) for 20 min in the dark. The coverslips were mounted on glass slides with Mowiol containing 2.5 % n-propyl gallate and 4,6-diamidin-2-phenylindol (DAPI; Invitrogen, Carlsbad, CA), a staining for nuclear DNA. Samples were analyzed by a Zeiss Axio-vert 200 M microscope, and a Plan Neofluar _ 100/1.30 Oil (DIC III) objective (Carl Zeiss, Jena, Germany). […]

5-LO [1] = test system: 5-LO; parameters: method as in PMID 32220788; conditions: read-out: IC50 against 5-LO; cited from earlier work
5-LO [2] = biological target: T2, 5-LO (Homo sapiens, UniProt P09917); assay: cell-free 5-LO activity assay with purified human recombinant 5-LO; assay type: biochemical; parameters: made in house; conditions: for mechanism of 5-LO inhibition versus substrate AA: AA 2.5, 5, 10, 20, 40 and 80 μM; for mechanism of 5-LO inhibition versus substrate AA / AA concentration at which maximal inhibitory potency was reached: isolated 5-LO; for AA concentration at which maximal inhibitory potency was reached: varying AA
T2 sequence (P09917 1-674): T1 sequence (P09917 1-674)
Description: 5-LO was expressed in E. coli B121 (DE3) transformed with pT3- 5LO plasmid, and purification of 5-LO was performed as described previously. Briefly, E. coli was lysed in 50 mM tri-ethanolamine/HCl, pH 8.0, 5 mM EDTA, […] soybean trypsin inhibitor, 1 mM phenylmethanesulfonyl fluoride, 1 mM dithiothreitol and 1 mg/mL lysozyme and then sonified (3 × 15 s). The homogenate was then centrifuged at 40,000g for 20 min at 4°C. 5-LO in the supernatant was partially purified by affinity chromatography on an ATP-agarose column (Sigma-Aldrich). Semi-purified 5-LO was diluted in PBS containing EDTA (1 mM) and ATP (1 mM) and immediately used for 5-LO activity assays. Samples were pre-incubated with the test compounds or vehicle (0.1 % DMSO) for 10 min at 4°C. Samples were pre-warmed for 30 s at 37°C, and 2 mM CaCl2 plus the indicated concentrations of AA were added to start 5-LO product formation. The reaction was stopped after 10 min by addition of one volume of ice-cold methanol, and the formed metabolites were analyzed by HPLC. 5- LO products include the all-trans isomers of LTB4 as well as 5-HPETE and its corresponding alcohol 5-HETE.

Compound	cytotoxicity on PMNL (LDH levels in the supernatants) (human PMNLs)	fMLP-induced activation (phosphorylation) of p38 MAP kinase (p38 MAPK)	fMLP-induced activation (phosphorylation) of ERK (ERK)	A23187-induced 5-LO translocation / colocalization with FLAP (5-LO/FLAP)	IC50 (5-LO [1])	IC50 (5-LO [2])	mechanism of 5-LO inhibition versus substrate AA (5-LO [2])	AA concentration at which maximal inhibitory potency was reached (5-LO [2])	phosphorylation and expression of p38 MAPK (Western blot) (p38 MAPK; LPS stimulation)	phosphorylation and expression of ERK (Western blot) (ERK; LPS stimulation)
CCCCCCCCCCCCCCCc1cccc(O)c1O [CS, 3-n-pentadecylcatechol]	comparable to those of untreated controls	did not show significant effects	did not show significant effects	not successful	2.74 µM	0.15 µM	not competitive	2.5 µM		
CCCC/C=C\CCCCCCCCCc1cccc(O)c1O [CI, (Z)-3-(pentadec-10′-enyl)-catechol]	comparable to those of untreated controls	inhibited	inhibited	able to block	2.09 µM	0.06 ± 0.04 µM	excluding a substrate competitive mechanism	20 µM	significantly inhibited	significantly inhibited
